Test results reported in US9879043B1, “Synthesis of non-natural cofactor analogs of S-adenosyl-L-methionine using methionine adenosyltransferase” (University of Kentucky Research Foundation, priority 2013, dated 2018).

How the values were obtained:
Assay type in all cases: biochemical
[1] = target: human MAT I catalytic subunit alpha (hMAT1A) (Homo sapiens, UniProt Q00266); test: MAT assay, turnover of S/Se-Met analogs to S(Se)AM analogs (RP-HPLC end point); settings: 2 mM Met analog, 1 mM ATP, 5 μM MAT, pH 8, 4 h, 37° C.; average of two assays
Method: (§1) Standard uniform assay conditions (2 mM Met analog, 1 mM ATP, 5 μM MAT, 25 mM Tris, 5 mM MgCl2, 50 mM KCl, pH 8, 4 h) were adopted to facilitate this broad assessment. For the thermophilic counterpart (mMAT), reactions were conducted at 65° C., while all other reactions were incubated at 37° C. Production of SAM analogs was determined by an RP-HPLC end point assay to afford complete analysis of the desired SAM analog and/or any corresponding degradation products known to directly derive from the desired SAM analog intermediate.
(§2) To monitor MAT reactions, analytical RP HPLC employed a Luna C18 column (5 μm, 4.6 mm×250 mm; Phenomenex, Torrance, Calif., USA) [gradient of 10% B to 40% B over 15 min, 40% B to 75% B over 5 min (A=10 mM NaH2PO4, 5 mM octane sulfonic acid, pH was adjusted to 3.5 using phosphoric acid; B=acetonitrile) flow rate=1 mL min^−1; A254].
(§3) The sMAT and mMAT reactions were conducted at 65° C. while hMATs and eMAT were incubated at 37° C. Reactions were quenched by adding an equal volume of methanol followed by centrifugation (10,000×g for 15 min) to remove the precipitated protein and product formation for each reaction was subsequently analyzed by RP-HPLC using Method D (FIG. 15, first column). For each reaction, percent yield was based upon the integration of species at 254 nm and calculated by dividing the integrated area of product and/or decomposed product by the sum of integrated area of product and/or decomposed product and the remaining substrate. The assays were repeated twice under identical conditions, and Table 2 (and FIG. 5) represents an average value of two assays. The inclusion of adenine and 5′-R-thio-5′-adenosine in these calculations is based upon the established SAM and ATP chemical decomposition pathways which indicate adenine and 5′-R-thio-5′-adenosine to only derive from SAM (not ATP). All putative products were subsequently confirmed by high resolution electrospray ionization (ESI) mass spectra with positive (+) and/or negative (−) mode.

[2] = target: human MAT II catalytic alpha subunit alone (hMAT2A) (Homo sapiens, UniProt P31153); test: as above; settings: 2 mM Met analog, 1 mM ATP, 5 μM MAT, pH 8, 4 h, 37° C.; average of two assays
Method: as §1, §2, §3

[3] = target: human MAT II catalytic alpha and regulatory beta subunit (hMAT2) (Homo sapiens, UniProt P31153); test: as above; settings: 2 mM Met analog, 1 mM ATP, 5 μM MAT, pH 8, 4 h, 37° C.; average of two assays
Method: as §1, §2, §3

[4] = target: T1, Methanocaldococcus jannaschii MAT (mMAT) (Methanocaldococcus jannaschii, UniProt Q58605); settings: 2 mM Met analog, 1 mM ATP, 5 μM MAT, pH 8, 4 h, 65° C.; average of two assays
T1 sequence (Q58605 1-406): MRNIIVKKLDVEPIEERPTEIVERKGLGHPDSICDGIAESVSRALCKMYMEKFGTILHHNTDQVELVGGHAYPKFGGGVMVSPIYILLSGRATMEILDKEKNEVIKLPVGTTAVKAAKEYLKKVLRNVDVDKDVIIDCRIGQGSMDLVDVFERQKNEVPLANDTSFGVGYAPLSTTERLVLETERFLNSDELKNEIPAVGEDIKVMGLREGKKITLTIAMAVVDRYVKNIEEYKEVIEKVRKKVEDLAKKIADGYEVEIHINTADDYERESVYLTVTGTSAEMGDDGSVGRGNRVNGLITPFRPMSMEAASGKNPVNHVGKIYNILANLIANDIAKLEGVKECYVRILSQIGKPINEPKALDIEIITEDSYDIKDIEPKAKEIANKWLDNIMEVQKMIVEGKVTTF
Method: as §1, §2, §3

[5] = target: T2, Sulfolobus solfataricus MAT (sMAT) (Saccharolobus solfataricus, UniProt Q980S9); settings: 2 mM analog, 1 mM ATP, 5 μM sMAT, pH 8.0, 4 h at 65° C.; average of two assays
T2 sequence (Q980S9 1-404): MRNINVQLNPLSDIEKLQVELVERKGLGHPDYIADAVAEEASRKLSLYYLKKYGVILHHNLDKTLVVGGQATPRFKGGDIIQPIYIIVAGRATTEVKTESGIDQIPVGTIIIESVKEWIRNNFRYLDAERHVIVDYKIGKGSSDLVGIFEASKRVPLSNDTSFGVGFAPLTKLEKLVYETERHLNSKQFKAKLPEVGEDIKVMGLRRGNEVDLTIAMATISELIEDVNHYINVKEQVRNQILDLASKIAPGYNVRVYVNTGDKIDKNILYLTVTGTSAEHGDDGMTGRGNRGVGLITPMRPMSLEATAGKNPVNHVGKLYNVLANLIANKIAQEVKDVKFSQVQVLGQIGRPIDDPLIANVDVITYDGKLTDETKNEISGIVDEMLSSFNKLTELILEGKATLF
Method: In-vitro sMAT assay: In vitro sMAT reactions were conducted in a volume of 50 μl with 2 mM S/Se-alkylated analog, 1 mM ATP and 5 μM purified sMAT in 25 mM Tris buffer pH 8.0, 5 mM MgCl2, 50 mM KCl for 4 h at 65° C. Reactions were quenched by adding an equal volume of methanol followed by centrifugation (10,000×g for 15 min) to remove the precipitated protein and product formation for each reaction was subsequently analyzed by reverse phase HPLC (RP-HPLC) using method described below. For each reaction, percent yield was based upon the integration of species at 254 nm and calculated by dividing the integrated area of product and/or decomposed product by the sum of integrated area of product and/or decomposed product and the remaining substrate. The assays were repeated twice under identical conditions, and Table 4 (and FIG. 17) represents an average value of two assays. The inclusion of adenine and 5′-R-thio-5′-adenosine in these calculations is based upon the established SAM and ATP chemical decomposition pathways which indicate adenine and 5′-R-thio-5′-adenosine to only derive from SAM (not ATP). All putative products were subsequently confirmed by high resolution electrospray ionization (ESI) mass spectra with positive (+) and/or negative (−) mode.
RP-HPLC method: Reactions were quenched by the addition of equal volume of methanol followed by centrifugation at 10,000 g for 15 min to remove precipitated protein before applying on an analytical Varian ProStar HPLC [Luna C18 column, 5 μm, 4.6 mm×250 mm; Phenomenex, Torrance, Calif., USA; gradient of 10% B to 40% B over 15 min, 40% B to 75% B over 5 min (A=10 mM NaH2PO4, 5 mM octane sulfonic acid, pH was adjusted to 3.5 using phosphoric acid; B=acetonitrile) flow rate=1 mL min^−1; A254].

[6] = target: Escherichia coli MAT (eMAT) (Escherichia coli, UniProt P0A817); test: MAT assay, turnover of S/Se-Met analogs to S(Se)AM analogs (RP-HPLC end point); settings: 2 mM Met analog, 1 mM ATP, 5 μM MAT, pH 8, 4 h, 37° C.; average of two assays
Method: as §1, with “intermediate. Putative SAM analog and SAM-derived degradative product formation was subsequently confirmed via high-resolution mass spectrometry (HRMS) analysis for all positive reactions (see Table 2).” for “intermediate.”
as §2
as §3, with “In vitro MAT reactions were conducted in a volume of 50 μl with 2 mM S/Se-alkylated analog (compounds 2-30), 1 mM ATP and 5 μM purified MAT in 25 mM Tris buffer pH 8.0, 5 mM MgCl2, 50 mM KCl for 4 h. The sMAT” for “The sMAT”

SMILES	Percentage Turn-over hMAT1A [1] [%]	Percentage Turn-over hMAT2A [2] [%]	Percentage Turn-over hMAT2 [3] [%]	Percentage Turn-over mMAT [4] [%]	Percentage Turn-Over (sMAT) [5] [%]	Percentage Turn-over eMAT [6] [%]
[N-]=[N+]=NCCSCC[C@H](N)C(=O)O [compound 17, (2S)-2-amino-4-[(2-azidoethyl)sulfanyl]butanoic acid]	4	18	49	29	50	0
C#CCSCC[C@H](N)C(=O)O [compound 4, (2S)-2-amino-4-(prop-2-yn-1-ylsulfanyl)butanoic acid]	2	6	20	6	36	2
CC(C)CCSCC[C@H](N)C(=O)O [compound 18, (2S)-2-amino-4-[(3-methylbutyl)sulfanyl]butanoic acid]	0	0	0	1	36	0
C=C/C=C/CSCC[C@H](N)C(=O)O [compound 16, (2S)-2-amino-4-[(2E)-penta-2,4-dien-1-ylsulfanyl]butanoic acid]	2	4	44	8	14	4
CC(C)=CCSCC[C@H](N)C(=O)O [compound 19, (2S)-2-amino-4-[(3-methylbut-2-en-1-yl)sulfanyl]butanoic acid]	0	4	6	13	12	3
[N-]=[N+]=NC/C=C/CSCC[C@H](N)C(=O)O [compound 23, (2S)-2-amino-4-{[(2E)-4-azidobut-2-en-1-yl]sulfanyl}butanoic acid]	2	5	12	32	28	0
C=CCSCC[C@H](N)C(=O)O [compound 7, (2S)-2-amino-4-(prop-2-en-1-ylsulfanyl)butanoic acid]	5	50	52	16	27	2
CCCSCC[C@H](N)C(=O)O [compound 8, (2S)-2-amino-4-(propylsulfanyl)butanoic acid]	5	54	55	21	44	2
CC(C)CSCC[C@H](N)C(=O)O [compound 14, (2S)-2-amino-4-[(2-methylpropyl)sulfanyl]butanoic acid]	0	0	0	1	57	0
N#CCSCC[C@H](N)C(=O)O [compound 6, (2S)-2-amino-4-[(cyanomethyl)sulfanyl]butanoic acid]	2	13	20	6	68	2
CCCCSCC[C@H](N)C(=O)O [compound 13, (2S)-2-amino-4-(butylsulfanyl)butanoic acid]	0	12	13	12	27	0
C/C=C/CSCC[C@H](N)C(=O)O [compound 11, (2S)-2-amino-4-[(2E)-but-2-en-1-ylsulfanyl]butanoic acid]	2	5	25	30	27	2
